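Five concentrations, 48 hours, 96-well plates. TGI: concentration producing complete growth inhibition.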
Columns and labels:
Assay in all cases: DTP human tumour cell line panel, 48 h
NCI-H23 lung = test system: NCI-H23 lung
OVCAR-3 ovarian = test system: OVCAR-3 ovarian
CAKI-1 renal = test system: CAKI-1 renal
OVCAR-4 ovarian = test system: OVCAR-4 ovarian
HCT-15 colon = test system: HCT-15 colon
HS 578T breast = test system: HS 578T breast
HL-60(TB) leukemia = test system: HL-60(TB) leukemia
DU-145 prostate = test system: DU-145 prostate
HCT-116 colon = test system: HCT-116 colon
MDA-MB-435 = test system: MDA-MB-435
UACC-257 melanoma = test system: UACC-257 melanoma
SR leukemia = test system: SR leukemia

SMILES | TGI (NCI-H23 lung) [µM] | TGI (OVCAR-3 ovarian) [µM] | TGI (CAKI-1 renal) [µM] | TGI (OVCAR-4 ovarian) [µM] | TGI (HCT-15 colon) [µM] | TGI (HS 578T breast) [µM] | TGI (HL-60(TB) leukemia) [µM] | TGI (DU-145 prostate) [µM] | TGI (HCT-116 colon) [µM] | TGI (MDA-MB-435) [µM] | TGI (UACC-257 melanoma) [µM] | TGI (SR leukemia) [µM]
CN(C)c1ccc(/C=C/C(=O)N[C@@H]2C(=O)N3[C@@H]2SC(C)(C)[C@@H]3C(=O)O)cc1 | > 100 | > 100 | > 100 | > 100 | > 100 | > 100 | > 100 | > 100 | > 100 | > 100 | > 100 | > 100
Cn1c([C@H](C#N)C(=O)c2cc(O)ccc2[N+](=O)[O-])nc2ccccc21 | > 100 | > 100 | > 100 | > 100 | > 100 | > 100 | > 100 | > 100 | > 100 | > 100 | > 100 | > 100
O=C1C=C2CCC[C@H]3OC(=O)C[C@@]23CC1 | > 100 | > 100 | > 100 | > 100 | > 100 | > 100 | > 100 | > 100 | > 100 | > 100 | > 100 | > 100
CCOC(=O)C(NC(=O)CC)(Nc1ccc(S(=O)(=O)Nc2onc(C)c2C)cc1)C(F)(F)F (configuration not stated) | > 100 | > 100 | > 100 | > 100 | > 100 | > 100 | > 100 | > 100 | > 100 | > 100 | > 100 | > 100
Cc1ccc(-c2cc(O)c3nc4ccccc4n3c2)cc1 | > 100 | > 100 | > 100 | > 100 | > 100 | > 100 | > 100 | > 100 | > 100 | > 100 | > 100 | > 100
O=C(O)CC[P+](c1ccccc1)(c1ccccc1)c1ccccc1 | > 100 | 56.5 | > 100 | > 100 | > 100 | > 100 | 80.8 | > 100 | > 100 | > 100 | > 100 | > 100
